Peptide text beside a SMILES is read from it.
From the text: All subjects who met eligibility criteria were confined to the clinical research unit from […] through Day 3. At admission, physical examination, vital signs, 12 lead ECG and weight were obtained, medical and medication history were updated if necessary, safety blood tests (hematology and chemistry), urinalysis, urine drug screen and an alcohol breath test were repeated and a urine pregnancy test was done for women of childbearing potential.
At each dose level, there were 2 sentinel subjects, (1 active, 1 placebo), who were dosed at least 48 hours in advance of the other subjects in their respective group. Following review of safety data, including physical examination, vital signs, and review of adverse events from the first 2 subjects, enrolment in the cohort continued.
A 12-lead ECG was performed on Day 1, within 60 minutes of infusion start (in triplicate), mid-way through the infusion, at the completion of the infusion, 30 minutes after completion of the infusion and at various timepoints following the end of the infusion.
Vital signs were recorded within 60 minutes pre-dose, at the mid-point of the infusion and post dose vitals were assessed at completion of the infusion, 0.5, 1, 2, 3, 4, 6, 9, 12, 24 and 48 hours post dose, after at least 3 minutes of rest in supine position.
Subjects returned to the study center 7 days after dosing, for the termination visit. A full physical examination, vital signs and weight were obtained, concomitant medications were updated if necessary, safety blood specimens (haematology and chemistry, PT and aPTT) and urine were collected for urinalysis and urine drug screening. A serum pregnancy test was done for women of childbearing potential and a 12-lead ECG was performed.
In this study dose limiting toxicity (DLT) was defined as any drug related ≥Grade 3 AEs occurring despite optimal therapeutic interventions (which included but were not limited to allergic/hypersensitivity reactions, dermatological reactions/infusion site reactions, haematological toxicities such as neutropenia, thrombocytopenia and anaemia and clinical chemistry abnormalities) experienced up to Day 7 (Termination Visit).
(§1) All subjects who received any amount of study drug were included in the safety analysis (Safety population).
The study was a double blinded, randomized, placebo-controlled study. The placebo administered was 0.9% sodium chloride.
On Day 1 (day of dosing), subjects were randomly assigned either peptide IV or Placebo IV. At each dose level, there were 2 sentinel subjects, (1 active, 1 placebo), who were dosed at least 48 hours in advance of the other subjects in their respective group. Following review of safety data, including physical examination, vital signs, and review of adverse events from the first 2 subjects, enrolment in the cohort continued. All subjects who met eligibility criteria were confined to the clinical research unit from Day −2 through Day 3. At admission, physical examination, vital signs, 12 lead ECG and weight were obtained, medical and medication history were updated if necessary, safety blood tests (hematology and chemistry), urinalysis, urine drug screen and an alcohol breath test were repeated and a urine pregnancy test was done for women of childbearing potential.
as §1

CC(C)[C@H](NC(=O)[C@H](Cc1c[nH]c2ccccc12)NC(=O)[C@H](CCCNC(=N)N)NC(=O)[C@H](CCCNC(=N)N)NC(=O)[C@@H](NC(=O)[C@@H](NC(=O)[C@H](CCCNC(=N)N)NC(=O)[C@@H](NC(=O)[C@@H](NC(=O)[C@H](CCCNC(=N)N)NC(=O)[C@H](CCCNC(=N)N)NC(=O)[C@H](Cc1c[nH]c2ccccc12)NC(=O)[C@@H](NC(=O)[C@H](CCCNC(=N)N)NC(=O)[C@H](CCCNC(=N)N)NC(=O)[C@@H](NC(=O)[C@H](CCCNC(=N)N)NC(=O)[C@H](CCCNC(=N)N)NC(=O)[C@@H](NC(=O)[C@H](Cc1c[nH]c2ccccc12)NC(=O)[C@H](CCCNC(=N)N)NC(=O)[C@@H](N)CCCNC(=N)N)C(C)C)C(C)C)C(C)C)C(C)C)C(C)C)C(C)C)C(C)C)C(=O)N[C@@H](CCCNC(=N)N)C(=O)N[C@@H](CCCNC(=N)N)C(N)=O [SEQ ID NO: 1] (H-RRWVRRVRRVWRRVVRVVRRWVRR-NH2)
TEAE severity Grade 5, participants n (%) (Pooled SEQ ID NO: 1 (N = 35)): 0
Treatment-related TEAE: Abdominal distension, occurrences m (Pooled SEQ ID NO: 1 (N = 35)): 1
Treatment-related TEAE: Abdominal distension, participants n (%) (Pooled SEQ ID NO: 1 (N = 35)): 1 (2.9%)
Treatment-related TEAE: Blood and Lymphatic System Disorders, participants n (%) (Pooled SEQ ID NO: 1 (N = 35)): 0
Treatment-related TEAE: Constipation, participants n (%) (Pooled SEQ ID NO: 1 (N = 35)): 0
Treatment-related TEAE: Diarrhea, occurrences m (Pooled SEQ ID NO: 1 (N = 35)): 1
Treatment-related TEAE: Diarrhea, participants n (%) (Pooled SEQ ID NO: 1 (N = 35)): 1 (2.9%)
Treatment-related TEAE: Dizziness, occurrences m (Pooled SEQ ID NO: 1 (N = 35)): 1
Treatment-related TEAE: Dizziness, participants n (%) (Pooled SEQ ID NO: 1 (N = 35)): 1 (2.9%)
Treatment-related TEAE: Feeling hot, participants n (%) (Pooled SEQ ID NO: 1 (N = 35)): 0
Treatment-related TEAE: Gastrointestinal Disorders, occurrences m (Pooled SEQ ID NO: 1 (N = 35)): 3
Treatment-related TEAE: Gastrointestinal Disorders, participants n (%) (Pooled SEQ ID NO: 1 (N = 35)): 2 (5.7%)
Treatment-related TEAE: General Disorders and Administration Site Conditions, occurrences m (Pooled SEQ ID NO: 1 (N = 35)): 11
Treatment-related TEAE: General Disorders and Administration Site Conditions, participants n (%) (Pooled SEQ ID NO: 1 (N = 35)): 10 (28.6%)
Treatment-related TEAE: Headache, occurrences m (Pooled SEQ ID NO: 1 (N = 35)): 1
Treatment-related TEAE: Headache, participants n (%) (Pooled SEQ ID NO: 1 (N = 35)): 1 (2.9%)
Treatment-related TEAE: Infusion related reaction, occurrences m (Pooled SEQ ID NO: 1 (N = 35)): 1
Treatment-related TEAE: Infusion related reaction, participants n (%) (Pooled SEQ ID NO: 1 (N = 35)): 1 (20.0%)
Treatment-related TEAE: Infusion site discomfort, occurrences m (Pooled SEQ ID NO: 1 (N = 35)): 1
Treatment-related TEAE: Infusion site discomfort, participants n (%) (Pooled SEQ ID NO: 1 (N = 35)): 1 (2.9%)
Treatment-related TEAE: Infusion site pain, occurrences m (Pooled SEQ ID NO: 1 (N = 35)): 3
Treatment-related TEAE: Infusion site pain, participants n (%) (Pooled SEQ ID NO: 1 (N = 35)): 3 (8.6%)
Treatment-related TEAE: Infusion site reaction, occurrences m (Pooled SEQ ID NO: 1 (N = 35)): 4
Treatment-related TEAE: Infusion site reaction, participants n (%) (Pooled SEQ ID NO: 1 (N = 35)): 4 (11.4%)
Treatment-related TEAE: Infusion site swelling, occurrences m (Pooled SEQ ID NO: 1 (N = 35)): 1
Treatment-related TEAE: Infusion site swelling, participants n (%) (Pooled SEQ ID NO: 1 (N = 35)): 1 (2.9%)
Treatment-related TEAE: Injury, Poisoning, and Procedural Complications, occurrences m (Pooled SEQ ID NO: 1 (N = 35)): 1
Treatment-related TEAE: Injury, Poisoning, and Procedural Complications, participants n (%) (Pooled SEQ ID NO: 1 (N = 35)): 1 (20.0%)
Treatment-related TEAE: Macule, occurrences m (Pooled SEQ ID NO: 1 (N = 35)): 1
Treatment-related TEAE: Macule, participants n (%) (Pooled SEQ ID NO: 1 (N = 35)): 1 (2.9%)
Treatment-related TEAE: Musculoskeletal and Connective Tissue Disorders, occurrences m (Pooled SEQ ID NO: 1 (N = 35)): 1
Treatment-related TEAE: Musculoskeletal and Connective Tissue Disorders, participants n (%) (Pooled SEQ ID NO: 1 (N = 35)): 1 (2.9%)
Treatment-related TEAE: Myalgia, occurrences m (Pooled SEQ ID NO: 1 (N = 35)): 1
Treatment-related TEAE: Myalgia, participants n (%) (Pooled SEQ ID NO: 1 (N = 35)): 1 (2.9%)
Treatment-related TEAE: Oropharyngeal pain, participants n (%) (Pooled SEQ ID NO: 1 (N = 35)): 0
Treatment-related TEAE: Orthostatic hypotension, occurrences m (Pooled SEQ ID NO: 1 (N = 35)): 1
Treatment-related TEAE: Orthostatic hypotension, participants n (%) (Pooled SEQ ID NO: 1 (N = 35)): 1 (2.9%)
Treatment-related TEAE: Pain in extremity, participants n (%) (Pooled SEQ ID NO: 1 (N = 35)): 0
Treatment-related TEAE: Phlebitis, occurrences m (Pooled SEQ ID NO: 1 (N = 35)): 3
Treatment-related TEAE: Phlebitis, participants n (%) (Pooled SEQ ID NO: 1 (N = 35)): 3 (8.6%)
Treatment-related TEAE: Respiratory, Thoracic, and Mediastinal disorders, participants n (%) (Pooled SEQ ID NO: 1 (N = 35)): 0
Treatment-related TEAE: Skin and Subcutaneous Tissue Disorders, occurrences m (Pooled SEQ ID NO: 1 (N = 35)): 1
Treatment-related TEAE: Skin and Subcutaneous Tissue Disorders, participants n (%) (Pooled SEQ ID NO: 1 (N = 35)): 1 (2.9%)
Treatment-related TEAE: Thrombocytopenia, participants n (%) (Pooled SEQ ID NO: 1 (N = 35)): 0
Treatment-related TEAE: Vascular Disorders, occurrences m (Pooled SEQ ID NO: 1 (N = 35)): 4
Treatment-related TEAE: Vascular Disorders, participants n (%) (Pooled SEQ ID NO: 1 (N = 35)): 3 (8.6%)
Treatment-related TEAE: Vessel puncture site erythema, occurrences m (Pooled SEQ ID NO: 1 (N = 35)): 1
Treatment-related TEAE: Vessel puncture site erythema, participants n (%) (Pooled SEQ ID NO: 1 (N = 35)): 1 (2.9%)
Treatment-related TEAE: Vessel puncture site pain, occurrences m (Pooled SEQ ID NO: 1 (N = 35)): 1
Treatment-related TEAE: Vessel puncture site pain, participants n (%) (Pooled SEQ ID NO: 1 (N = 35)): 3 (2.9%)
Treatment-related TEAE: Vomiting, occurrences m (Pooled SEQ ID NO: 1 (N = 35)): 1
Treatment-related TEAE: Vomiting, participants n (%) (Pooled SEQ ID NO: 1 (N = 35)): 1 (2.9%)
Number of Participants Reporting at least: Onc TEAE Leading to Study Withdrawal, n (%) (Pooled active cohorts (N = 35)): 0
Number of Participants Reporting at least: One Dose-Limiting Toxicity, n (%) (Pooled active cohorts (N = 35)): 0
Number of Participants Reporting at least: One Related TEAE, n (%) (Pooled active cohorts (N = 35)): 13 (37.1%)
Number of Participants Reporting at least: One Serious TEAE, n (%) (Pooled active cohorts (N = 35)): 0
Number of Participants Reporting at least: One TEAE Leading to Study Drug Discontinuation, n (%) (Pooled active cohorts (N = 35)): 2 (5.7%)
Number of Participants Reporting at least: One TEAE with Common Terminology Criteria for Adverse Events (CTCAE) Toxicity ≥ Grade 3, n (%) (Pooled active cohorts (N = 35)): 0
Number of Participants Reporting at least: One TEAE, n (%) (Pooled active cohorts (N = 35)): 31 (88.6%)
One Related TEAE, m (Pooled active cohorts (N = 35)): 23
One TEAE Leading to Study Drug Discontinuation, m (Pooled active cohorts (N = 35)): 4
One TEAE, m (Pooled active cohorts (N = 35)): 72
TEAE Severity Grade 1, m (Pooled active cohorts (N = 35)): 64
TEAE Severity Grade 1, n (%) (Pooled active cohorts (N = 35)): 30 (85.7%)
TEAE Severity Grade 2, m (Pooled active cohorts (N = 35)): 8
TEAE Severity Grade 2, n (%) (Pooled active cohorts (N = 35)): 5 (14.3%)
overall safety and tolerability (healthy volunteers, 0.05 to 1 mg/kg, drug concentration below 0.50 mg/mL and dose rate below 25 mg/hour): safe and well tolerated
severity of IRRs in relation to maximum dose rate (maximum dose rate higher (>25 mg/hr)): more severe

— patent US20240115654A1, “INTRAVENOUS ADMINISTRATION OF ENGINEERED ANTIMICROBIAL AMPHIPHILIC PEPTIDES” (priority 2021, published 2024)
